Experimental data reported in ChEMBL document CHEMBL5252562, “Synthesis, evaluation of anti-breast cancer activity in vitro of ICS II derivatives and summary of the structure-activity relationship” (Bioorg Med Chem, 2023).

Tests used:
MCF7 [1] = experiment: Antitumor activity against human MCF7 cells assessed as cell viability incubated for 48 hrs by CCK8 assay; assay type: functional, cell-based; conditions: MCF7, 48 h
[2] = Cytotoxicity against African green monkey Vero cells; assay type: toxicity, cell-based; conditions: African green monkey (Chlorocebus sabaeus)
[3] = Selectivity index, ratio of IC50 for cytotoxicity against African green monkey Vero cells to IC50 for antitumor activity against human MCF7 cells; assay type: toxicity, cell-based; conditions: Vero cells and MCF7 cells, read-out: Ratio IC50
MCF7 [4] = experiment: Antitumor activity against human MCF7 cells assessed as cell viability at 20 uM incubated for 48 hrs by CCK8 assay; assay type: functional; conditions: read-out: Activity
MCF7 [5] = experiment: Potency index, ratio of Icariside-II IC50 to test compound IC50 for antitumor activity against human MCF7 cells; assay type: functional

| IC50 (MCF7 [1]) | SMILES | IC50 [2] | selectivity ratio [3] | viability at 20 µM (MCF7 [4]) | Ratio IC50 (MCF7 [5]) |
| --- | --- | --- | --- | --- | --- |
| 2.17 µM | COc1ccc(-c2oc3c(CC=C(C)C)c(OCC=C(C)C)cc(O)c3c(=O)c2O[C@@H]2O[C@@H](C)[C@H](O)[C@@H](O)[C@H]2O)cc1 | 6.74 µM | 2.85 | < 50% |  |
| 10.2 µM | COc1ccc(-c2oc3c(CC=C(C)C)c(OCCO)cc(O)c3c(=O)c2O[C@@H]2O[C@@H](C)[C@H](O)[C@@H](O)[C@H]2O)cc1 |  |  | < 50% |  |
| 6.24 µM | C#CCOc1cc(OCC#C)c2c(=O)c(O[C@@H]3O[C@@H](C)[C@H](O)[C@@H](O)[C@H]3O)c(-c3ccc(OC)cc3)oc2c1CC=C(C)C |  |  | < 50% |  |
| > 20 µM | COc1ccc(-c2oc3c(CC=C(C)C)c(O)c(CN4CCCC4)c(O)c3c(=O)c2O[C@@H]2O[C@@H](C)[C@H](O)[C@@H](O)[C@H]2O)cc1 |  |  |  |  |
| 0.7 µM | COc1ccc(-c2oc3c(CC=C(C)C)c(OC(C)=O)cc(OC(C)=O)c3c(=O)c2O[C@@H]2O[C@@H](C)[C@H](OC(C)=O)[C@@H](OC(C)=O)[C@H]2OC(C)=O)cc1 | 3.13 µM | 4.47 | < 50% | 5 |
| 2.89 µM | C=CCOc1cc(O)c2c(=O)c(O[C@@H]3O[C@@H](C)[C@H](O)[C@@H](O)[C@H]3O)c(-c3ccc(OC)cc3)oc2c1CC=C(C)C | 5.88 µM | 2.03 | < 50% |  |
| > 20 µM | COc1ccc(-c2oc3c(CC=C(C)C)c(O)c(CN(C(C)C)C(C)C)c(O)c3c(=O)c2O[C@@H]2O[C@@H](C)[C@H](O)[C@@H](O)[C@H]2O)cc1 |  |  |  |  |
| > 20 µM | COc1ccc(-c2oc3c(CC=C(C)C)c(O)c(CN4CCCCC4)c(O)c3c(=O)c2O[C@@H]2O[C@@H](C)[C@H](O)[C@@H](O)[C@H]2O)cc1 |  |  |  |  |
| 4.07 µM | COc1ccc(-c2oc3c(CC=C(C)C)c(OCCCN4CCNCC4)cc(O)c3c(=O)c2O[C@@H]2O[C@@H](C)[C@H](O)[C@@H](O)[C@H]2O)cc1 | > 20 µM | > 5 | < 50% |  |
| 13.4 µM | COc1ccc(-c2oc3c(CC=C(C)C)c(OCCCBr)cc(O)c3c(=O)c2O[C@@H]2O[C@@H](C)[C@H](O)[C@@H](O)[C@H]2O)cc1 |  |  | < 50% |  |
| > 20 µM | C=C(C)COc1c(CN2CCC(C)CC2)c(O)c2c(=O)c(O[C@@H]3O[C@@H](C)[C@H](O)[C@@H](O)[C@H]3O)c(-c3ccc(OC)cc3)oc2c1CC=C(C)C |  |  |  |  |
| 6.28 µM | COc1ccc(-c2oc3c(CC=C(C)C)c(OCC4OCCO4)cc(O)c3c(=O)c2O[C@@H]2O[C@@H](C)[C@H](O)[C@@H](O)[C@H]2O)cc1 |  |  | < 50% |  |
| > 20 µM | CCN(CC)Cc1c(O)c(CC=C(C)C)c2oc(-c3ccc(OC)cc3)c(O[C@@H]3O[C@@H](C)[C@H](O)[C@@H](O)[C@H]3O)c(=O)c2c1O |  |  |  |  |
| 3.17 µM | COc1ccc(-c2oc3c(CC=C(C)C)c(OCCCN4CCC(C)CC4)cc(O)c3c(=O)c2O[C@@H]2O[C@@H](C)[C@H](O)[C@@H](O)[C@H]2O)cc1 | 10.3 µM | 3.24 | < 50% |  |
| 8.25 µM | CCOc1cc(O)c2c(=O)c(O[C@@H]3O[C@@H](C)[C@H](O)[C@@H](O)[C@H]3O)c(-c3ccc(OC)cc3)oc2c1CC=C(C)C |  |  | < 50% |  |
| > 20 µM | COc1ccc(-c2oc3c(CC=C(C)C)c(O)c(CN4CCN(C)CC4)c(O)c3c(=O)c2O[C@@H]2O[C@@H](C)[C@H](O)[C@@H](O)[C@H]2O)cc1 |  |  |  |  |
| 10.2 µM | COc1ccc(-c2oc3c(CC=C(C)C)c(OCCCCCCCCCO)cc(O)c3c(=O)c2O[C@@H]2O[C@@H](C)[C@H](O)[C@@H](O)[C@H]2O)cc1 |  |  | < 50% |  |
| 2.79 µM | C#CCOc1cc(O)c2c(=O)c(O[C@@H]3O[C@@H](C)[C@H](O)[C@@H](O)[C@H]3O)c(-c3ccc(OC)cc3)oc2c1CC=C(C)C | 6.43 µM | 2.3 | < 50% |  |
| > 20 µM | COc1ccc(-c2oc3c(CC=C(C)C)c(OCc4ccc([N+](=O)[O-])cc4)cc(O)c3c(=O)c2O[C@@H]2O[C@@H](C)[C@H](O)[C@@H](O)[C@H]2O)cc1 |  |  |  |  |
| 3.79 µM | COc1ccc(-c2oc3c(CC=C(C)C)c(OCCCN4CCCCC4)cc(O)c3c(=O)c2O[C@@H]2O[C@@H](C)[C@H](O)[C@@H](O)[C@H]2O)cc1 | 15.5 µM | 4.08 | < 50% |  |
| 3.97 µM | C=C(C)COc1cc(O)c2c(=O)c(O[C@@H]3O[C@@H](C)[C@H](O)[C@@H](O)[C@H]3O)c(-c3ccc(OC)cc3)oc2c1CC=C(C)C | 8.18 µM | 2.06 | < 50% |  |
| > 20 µM | COc1ccc(-c2oc3c(CC=C(C)C)c(O)c(CN4CCNCC4)c(O)c3c(=O)c2O[C@@H]2O[C@@H](C)[C@H](O)[C@@H](O)[C@H]2O)cc1 |  |  |  |  |
| 3.26 µM | CCN(CC)CCCOc1cc(O)c2c(=O)c(O[C@@H]3O[C@@H](C)[C@H](O)[C@@H](O)[C@H]3O)c(-c3ccc(OC)cc3)oc2c1CC=C(C)C | 6.19 µM | 1.89 | < 50% |  |
| 3.09 µM | COc1ccc(-c2oc3c(CC=C(C)C)c(OCCCN4CCCC4)cc(O)c3c(=O)c2O[C@@H]2O[C@@H](C)[C@H](O)[C@@H](O)[C@H]2O)cc1 | 6.15 µM | 1.99 | < 50% |  |
| 17.4 µM | COc1ccc(-c2oc3c(CC=C(C)C)c(O)c(CN4CCC(C)CC4)c(O)c3c(=O)c2O[C@@H]2O[C@@H](C)[C@H](O)[C@@H](O)[C@H]2O)cc1 |  |  |  |  |
| 1.54 µM | COc1ccc(-c2oc3c(CC=C(C)C)c(OC(C)=O)cc(O)c3c(=O)c2O[C@@H]2O[C@@H](C)[C@H](OC(C)=O)[C@@H](OC(C)=O)[C@H]2OC(C)=O)cc1 | 3.88 µM | 2.51 | < 50% |  |
| 7.52 µM | COc1ccc(-c2oc3c(CC=C(C)C)c(O)cc(O)c3c(=O)c2O[C@@H]2O[C@@H](C)[C@H](O)[C@@H](O)[C@H]2O)cc1 | 9.34 µM | 1.24 |  |  |

| SMILES | IC50 (MCF7 [1]) | IC50 [2] | selectivity ratio [3] | viability at 20 µM (MCF7 [4]) | Ratio IC50 (MCF7 [5]) |
| --- | --- | --- | --- | --- | --- |
| COc1ccc(-c2oc3c(CC=C(C)C)c(OC(=O)N(C)C)cc(O)c3c(=O)c2O[C@@H]2O[C@@H](C)[C@H](O)[C@@H](O)[C@H]2O)cc1 | > 20 µM |  |  |  |  |
| CC(=O)O[C@H]1C(=O)[C@@]2(C)[C@H]([C@H](OC(=O)c3ccccc3)[C@]3(O)C[C@H](OC(=O)[C@H](O)[C@@H](NC(=O)c4ccccc4)c4ccccc4)C(C)=C1C3(C)C)[C@]1(OC(C)=O)CO[C@@H]1C[C@@H]2O [PACLITAXEL] | 0.48 µM |  |  |  |  |
